Assay results published in the supplement of paper PMC10307832.

Tests used:
Assay in all cases: relative viability (nuclei count vs DMSO), 5 days (fraction); higher = more cells survive
HOP-62 = tested on: HOP-62
Summary of the method: (§1)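 Values are medians from duplicate plates. Each reflects relative viability, defined as the nuclei count of treated wells over that of vehicle wells. Lung cancer cell lines in 1536-well plates were pin-tool dosed one day after seeding with one drug alone or with a fixed anchor-drug dose plus five library-drug doses (not always all listed) in √10 steps, then fixed, stained and imaged at 4× after 5 days.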

HCC-44 = tested on: HCC-44
Summary of the method: as §1

NCI-H520 = tested on: NCI-H520
Summary of the method: as §1

H3255 = tested on: H3255
Summary of the method: as §1

NCI-H2342 = tested on: NCI-H2342
Summary of the method: as §1

NCI-H1355 = tested on: NCI-H1355
Summary of the method: as §1

LCLC-103H = tested on: LCLC-103H
Summary of the method: as §1

SK-MES-1 = tested on: SK-MES-1
Summary of the method: as §1

NCI-H647 = tested on: NCI-H647
Summary of the method: as §1

NCI-H2126 = tested on: NCI-H2126
Summary of the method: as §1

COR-L 105 = tested on: COR-L 105
Summary of the method: as §1

RERF-LC-KJ = tested on: RERF-LC-KJ
Summary of the method: as §1

201T = tested on: 201T
Summary of the method: as §1

A-427 = tested on: A-427
Summary of the method: as §1

NCI-H23 = tested on: NCI-H23
Summary of the method: as §1

NCI-H441 = tested on: NCI-H441
Summary of the method: as §1

NCI-H1915 = tested on: NCI-H1915
Summary of the method: as §1

NCI-H322M = tested on: NCI-H322M
Summary of the method: as §1

NCI-H2087 = tested on: NCI-H2087
Summary of the method: as §1

COR-L23 = tested on: COR-L23
Summary of the method: as §1

NCI-H2085 = tested on: NCI-H2085
Summary of the method: as §1

NCI-H1651 = tested on: NCI-H1651
Summary of the method: as §1

LC-2-ad = tested on: LC-2-ad
Summary of the method: as §1

ChaGo-K-1 = tested on: ChaGo-K-1
Summary of the method: as §1

NCI-H1993 = tested on: NCI-H1993
Summary of the method: as §1

Nc1cccc2c1CN(C1CCC(=O)NC1=O)C2=O (stereo not drawn) [Lenalidomide] + O=C(CCCCCCC(=O)Nc1ccccc1)NO [Vorinostat] (partner 1 µM)
relative viability (HOP-62; first compound 0.253 µM): 0.56
relative viability (HOP-62; first compound 0.8 µM): 0.565
relative viability (HOP-62; first compound 2.53 µM): 0.662
relative viability (HOP-62; first compound 8 µM): 0.519
relative viability (HCC-44; first compound 0.253 µM): 1.05
relative viability (HCC-44; first compound 0.8 µM): 0.926
relative viability (HCC-44; first compound 2.53 µM): 1.04
relative viability (HCC-44; first compound 8 µM): 1.08
relative viability (NCI-H520; first compound 0.253 µM): 0.738
relative viability (NCI-H520; first compound 0.8 µM): 0.74
relative viability (NCI-H520; first compound 2.53 µM): 0.731
relative viability (NCI-H520; first compound 8 µM): 0.698
relative viability (H3255; first compound 0.253 µM): 0.716
relative viability (H3255; first compound 0.8 µM): 0.515
relative viability (H3255; first compound 2.53 µM): 0.823
relative viability (H3255; first compound 8 µM): 0.862
relative viability (NCI-H2342; first compound 0.253 µM): 0.744
relative viability (NCI-H2342; first compound 0.8 µM): 0.599
relative viability (NCI-H2342; first compound 2.53 µM): 0.923
relative viability (NCI-H2342; first compound 8 µM): 0.654
relative viability (NCI-H1355; first compound 0.253 µM): 0.608
relative viability (NCI-H1355; first compound 0.8 µM): 0.455
relative viability (NCI-H1355; first compound 2.53 µM): 0.707
relative viability (NCI-H1355; first compound 8 µM): 0.495
relative viability (LCLC-103H; first compound 0.253 µM): 0.761
relative viability (LCLC-103H; first compound 0.8 µM): 0.679
relative viability (LCLC-103H; first compound 2.53 µM): 0.818
relative viability (LCLC-103H; first compound 8 µM): 0.616
relative viability (SK-MES-1; first compound 0.253 µM): 0.99
relative viability (SK-MES-1; first compound 0.8 µM): 0.881
relative viability (SK-MES-1; first compound 2.53 µM): 1.19
relative viability (SK-MES-1; first compound 8 µM): 1.06
relative viability (NCI-H647; first compound 0.253 µM): 0.415
relative viability (NCI-H647; first compound 0.8 µM): 0.68
relative viability (NCI-H647; first compound 2.53 µM): 0.525
relative viability (NCI-H647; first compound 8 µM): 0.653
relative viability (NCI-H2126; first compound 0.253 µM): 0.771
relative viability (NCI-H2126; first compound 0.8 µM): 0.747
relative viability (NCI-H2126; first compound 2.53 µM): 0.832
relative viability (NCI-H2126; first compound 8 µM): 0.658
relative viability (COR-L 105; first compound 0.253 µM): 0.682
relative viability (COR-L 105; first compound 0.8 µM): 0.863
relative viability (COR-L 105; first compound 2.53 µM): 0.983
relative viability (COR-L 105; first compound 8 µM): 0.858
relative viability (RERF-LC-KJ; first compound 0.253 µM): 0.574
relative viability (RERF-LC-KJ; first compound 0.8 µM): 0.605
relative viability (RERF-LC-KJ; first compound 2.53 µM): 0.71
relative viability (RERF-LC-KJ; first compound 8 µM): 0.686
relative viability (201T; first compound 0.253 µM): 0.963
relative viability (201T; first compound 0.8 µM): 0.791
relative viability (201T; first compound 2.53 µM): 0.955
relative viability (201T; first compound 8 µM): 0.859
relative viability (A-427; first compound 0.253 µM): 0.871
relative viability (A-427; first compound 0.8 µM): 0.898
relative viability (A-427; first compound 2.53 µM): 0.878
relative viability (A-427; first compound 8 µM): 0.873
relative viability (NCI-H23; first compound 0.253 µM): 0.511
relative viability (NCI-H23; first compound 2.53 µM): 0.747
relative viability (NCI-H23; first compound 8 µM): 0.407
relative viability (NCI-H441; first compound 0.253 µM): 0.77
relative viability (NCI-H441; first compound 0.8 µM): 0.757
relative viability (NCI-H441; first compound 2.53 µM): 0.863
relative viability (NCI-H441; first compound 8 µM): 0.944
relative viability (NCI-H1915; first compound 0.253 µM): 0.478
relative viability (NCI-H1915; first compound 0.8 µM): 0.482
relative viability (NCI-H1915; first compound 2.53 µM): 0.601
relative viability (NCI-H1915; first compound 8 µM): 0.445
relative viability (NCI-H322M; first compound 0.253 µM): 0.934
relative viability (NCI-H322M; first compound 0.8 µM): 0.907
relative viability (NCI-H322M; first compound 2.53 µM): 0.962
relative viability (NCI-H322M; first compound 8 µM): 0.986
relative viability (NCI-H2087; first compound 0.253 µM): 0.809
relative viability (NCI-H2087; first compound 2.53 µM): 0.84
relative viability (NCI-H2087; first compound 8 µM): 0.56
relative viability (COR-L23; first compound 0.253 µM): 0.542
relative viability (COR-L23; first compound 0.8 µM): 0.408
relative viability (COR-L23; first compound 2.53 µM): 0.498
relative viability (COR-L23; first compound 8 µM): 0.509
relative viability (NCI-H2085; first compound 0.253 µM): 0.826
relative viability (NCI-H2085; first compound 0.8 µM): 0.691
relative viability (NCI-H2085; first compound 2.53 µM): 0.799
relative viability (NCI-H2085; first compound 8 µM): 0.624
relative viability (NCI-H1651; first compound 0.253 µM): 0.624
relative viability (NCI-H1651; first compound 0.8 µM): 0.471
relative viability (NCI-H1651; first compound 2.53 µM): 0.589
relative viability (NCI-H1651; first compound 8 µM): 0.579
relative viability (LC-2-ad; first compound 0.253 µM): 0.733
relative viability (LC-2-ad; first compound 0.8 µM): 0.643
relative viability (LC-2-ad; first compound 2.53 µM): 0.718
relative viability (LC-2-ad; first compound 8 µM): 0.735
relative viability (ChaGo-K-1; first compound 0.253 µM): 0.773
relative viability (ChaGo-K-1; first compound 0.8 µM): 0.753
relative viability (ChaGo-K-1; first compound 2.53 µM): 0.838
relative viability (ChaGo-K-1; first compound 8 µM): 0.694
relative viability (NCI-H1993; first compound 0.253 µM): 0.872
relative viability (NCI-H1993; first compound 0.8 µM): 0.615
relative viability (NCI-H1993; first compound 2.53 µM): 0.962
relative viability (NCI-H1993; first compound 8 µM): 0.383
